The test system of the experiment is BDF1 mice, P388 leukemia ip, median survival T/C. Put plainly: NCI In Vivo Anticancer Drug Screen. Data for tumor model P388 Leukemia (intraperitoneal) in B6D2F1 (BDF1) mice. To be noted: endpoint: median survival time, higher = longer survival. The method in brief:
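Steps: implant the tumour, treat one group with compound and another with vehicle, record survival, then divide treated by control.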

[1] abbreviates: dose: 100.0 mg/kg/injection, schedule: Q01DX001 (ip), vehicle: saline.
Setting [2] is: dose: 200.0 mg/kg/injection, schedule: Q01DX001 (ip), vehicle: saline.
Where [3] appears, read: dose: 25.0 mg/kg/injection, schedule: Q04DX003 (ip), vehicle: saline with Tween-80.
The mark [4] stands for this setting: dose: 50.0 mg/kg/injection, schedule: Q04DX003 (ip), vehicle: saline with Tween-80.
Setting [5] is: dose: 100.0 mg/kg/injection, schedule: Q04DX003 (ip), vehicle: saline with Tween-80.
Setting [6] is: dose: 200.0 mg/kg/injection, schedule: Q04DX003 (ip), vehicle: saline with Tween-80.
The mark [7] stands for this setting: dose: 400.0 mg/kg/injection, schedule: Q04DX003 (ip), vehicle: saline with Tween-80.
Where [8] appears, read: dose: 100.0 mg/kg/injection, schedule: Q01DX009 (ip), vehicle: saline with Tween-80.
Where [9] appears, read: dose: 200.0 mg/kg/injection, schedule: Q01DX009 (ip), vehicle: saline with Tween-80.
The mark [10] stands for this setting: dose: 400.0 mg/kg/injection, schedule: Q01DX009 (ip), vehicle: saline with Tween-80.
[11] abbreviates: dose: 50.0 mg/kg/injection, schedule: Q01DX009 (ip), vehicle: Klucel (hydroxypropylcellulose) (HPC).
Setting [12] is: dose: 100.0 mg/kg/injection, schedule: Q01DX009 (ip), vehicle: Klucel (hydroxypropylcellulose) (HPC).
Where [13] appears, read: dose: 100.0 mg/kg/injection, schedule: Q04DX003 (ip), vehicle: Klucel (hydroxypropylcellulose) (HPC).
The mark [14] stands for this setting: dose: 200.0 mg/kg/injection, schedule: Q01DX009 (ip), vehicle: Klucel (hydroxypropylcellulose) (HPC).
Where [15] appears, read: dose: 200.0 mg/kg/injection, schedule: Q04DX003 (ip), vehicle: Klucel (hydroxypropylcellulose) (HPC).
Where [16] appears, read: dose: 50.0 mg/kg/injection, schedule: Q01DX009 (ip), vehicle: saline.
Setting [17] is: dose: 100.0 mg/kg/injection, schedule: Q01DX009 (ip), vehicle: saline.
The mark [18] stands for this setting: dose: 100.0 mg/kg/injection, schedule: Q04DX003 (ip), vehicle: saline.
The mark [19] stands for this setting: dose: 200.0 mg/kg/injection, schedule: Q01DX009 (ip), vehicle: saline.
Where [20] appears, read: dose: 200.0 mg/kg/injection, schedule: Q04DX003 (ip), vehicle: saline.
[21] abbreviates: dose: 400.0 mg/kg/injection, schedule: Q04DX003 (ip), vehicle: saline.
[22] abbreviates: dose: 25.0 mg/kg/injection, schedule: Q04DX003 (ip), vehicle: saline.
[23] abbreviates: dose: 50.0 mg/kg/injection, schedule: Q04DX003 (ip), vehicle: saline.
Setting [24] is: dose: 25.0 mg/kg/injection, schedule: Q01DX009 (ip), vehicle: saline.

Values joined by “and” are separate entries in the source; they are usually repeats but may differ in a detail not shown here. Equal values may be shown once. Toxic doses and inconclusive results are not listed.

Results on 20 compounds are retold here after PubChem BioAssay AID328 (DTP/NCI, 2004).

On to `CC(=O)C(C)(NCc1ccccc1)c1ccccc1` (configuration not stated), for which the T/C (dose: 45.0 mg/kg/injection, schedule: Q01DX001 (ip), vehicle: saline) was 104 % of control; the T/C (dose: 85.0 mg/kg/injection, schedule: Q01DX001 (ip), vehicle: saline) was 108 % of control and 116 % of control; the T/C under setting [1] is 109 % of control; the T/C (dose: 135.0 mg/kg/injection, schedule: Q01DX001 (ip), vehicle: saline) is 120 % of control; the T/C under setting [2] was 104 % of control; the T/C (dose: 300.0 mg/kg/injection, schedule: Q01DX001 (ip), vehicle: saline) was 100 % of control. The T/C (dose: 400.0 mg/kg/injection, schedule: Q01DX001 (ip), vehicle: saline) was 104 % of control.

On to `CCN(CC)c1ccc(/C=C\c2c(C)cnc3ccccc23)cc1`, for which the T/C was 95 % of control under setting [3]; 95 % of control under setting [4]; 96 % of control and 110 % of control under setting [5]; 97 % of control under setting [6]; 97 % of control under setting [7].

With `O=C(Cn1cc(F)c(=O)[nH]c1=O)c1ccc(Cl)s1`, the T/C was 105 % of control (dose: 50.0 mg/kg/injection, schedule: Q01DX009 (ip), vehicle: saline with Tween-80); 96 % of control under setting [8]; 94 % of control under setting [5]; 103 % of control under setting [9]; 101 % of control under setting [6]; 103 % of control under setting [10]. In addition, the T/C under setting [7] was 102 % of control.

Turning to `O=C1c2ccccc2C(=Cc2ccccc2)c2ccccc21`, the T/C is 118 % of control under setting [8], 100 % of control under setting [9] and 113 % of control under setting [10].

On to `O=S(=O)(NS(=O)(=O)c1ccc(Cl)cc1)c1ccc(Cl)cc1`, for which the T/C by setting is: under setting [11], 95 % of control; under setting [12], 115 % of control; under setting [13], 95 % of control; under setting [14], 115 % of control; under setting [15], 86 % of control.

For `CN1c2c(nc(N)[nH]c2=O)NCC1CCNc1ccc(C(=O)NC(CCC(=O)O)C(=O)O)cc1` (configuration not stated), the T/C runs as follows: (dose: 6.25 mg/kg/injection, schedule: Q01DX009 (ip), vehicle: other) 100 % of control; (dose: 12.5 mg/kg/injection, schedule: Q01DX009 (ip), vehicle: other) 100 % of control; (dose: 25.0 mg/kg/injection, schedule: Q01DX009 (ip), vehicle: other) 109 % of control; (dose: 50.0 mg/kg/injection, schedule: Q01DX009 (ip), vehicle: other) 109 % of control; under setting [16], 104 % of control; under setting [17], 112 % of control. Besides, the T/C is 109 % of control under setting [18]; 118 % of control (dose: 200.0 mg/kg/injection, schedule: Q01DX009 (ip), vehicle: other); 122 % of control under setting [19]; 109 % of control under setting [20]; 90 % of control under setting [21].

For the compound `Cc1c(C)c2ccc(N)cc2[nH]c1=O`, the T/C is, setting by setting: (dose: 2.0 mg/kg/injection, schedule: Q01DX009 (ip), vehicle: saline) 118 % of control; (dose: 4.0 mg/kg/injection, schedule: Q01DX009 (ip), vehicle: saline) 105 % of control; (dose: 8.0 mg/kg/injection, schedule: Q01DX009 (ip), vehicle: saline) 99 % of control; (dose: 16.0 mg/kg/injection, schedule: Q01DX009 (ip), vehicle: saline) 118 % of control; under setting [22], 98 % of control; under setting [23], 106 % of control. The T/C was 106 % of control under setting [18], 104 % of control under setting [20] and 107 % of control under setting [21].

As to `CCOC(=O)CCN(C)C`, the T/C runs as follows: under setting [17], 102 % of control; under setting [19], 95 % of control; (dose: 400.0 mg/kg/injection, schedule: Q01DX009 (ip), vehicle: saline) 102 % of control.

As to `CCCCC/C(C=C(C#N)C#N)=C/c1ccccc1`, the T/C runs as follows: (dose: 25.0 mg/kg/injection, schedule: Q01DX009 (ip), vehicle: saline with Tween-80) 100 % of control; under setting [8], 119 % of control.

With `Cn1c(-c2ccccc2)c(C(=O)O)c(C(=O)O)c1-c1ccccc1`, the T/C runs as follows: under setting [11], 95 % of control; under setting [12], 90 % of control; under setting [14], 96 % of control.

In the case of `O=C(O)CCI`, the T/C was 113 % of control under setting [3]; 100 % of control under setting [16]; 100 % of control under setting [4]; 104 % of control under setting [1]; 100 % of control under setting [17]; 92 % of control and 95 % of control under setting [5]. Besides, the T/C was 104 % of control under setting [2] and 91 % of control under setting [19].

`CCCCOC1OC[N+](C)(C)CC1(C)C` (configuration not stated): the T/C is, setting by setting: under setting [3], 102 % of control; under setting [4], 105 % of control; under setting [5], 100 % of control and 105 % of control.

Regarding `O=c1ccccn1C/C(=N\O)c1ccccc1`, the T/C was 95 % of control under setting [12]; 100 % of control under setting [13]; 95 % of control under setting [14]; 95 % of control under setting [15]; 100 % of control (dose: 400.0 mg/kg/injection, schedule: Q01DX009 (ip), vehicle: Klucel (hydroxypropylcellulose) (HPC)); 100 % of control (dose: 400.0 mg/kg/injection, schedule: Q04DX003 (ip), vehicle: Klucel (hydroxypropylcellulose) (HPC)).

For `c1ccc2c(c1)OP(OP1Oc3ccccc3O1)O2`, the T/C under setting [24] was 95 % of control; the T/C under setting [16] is 113 % of control; the T/C (dose: 150.0 mg/kg/injection, schedule: Q04DX003 (ip), vehicle: saline) is 113 % of control.

As to `Cc1cccc(C(=O)NN)c1O`, the T/C was 92 % of control (dose: 25.0 mg/kg/injection, schedule: Q01DX009 (ip), vehicle: saline + alcohol) and 97 % of control (dose: 100.0 mg/kg/injection, schedule: Q01DX009 (ip), vehicle: saline + alcohol).

In the case of `Cn1c(O)c(C=N)c(=O)n(C)c1=O`, the T/C is, setting by setting: (dose: 12.0 mg/kg/injection, schedule: Q01DX009 (ip), vehicle: saline) 118 % of control; under setting [24], 109 % of control; under setting [22], 92 % of control; under setting [16], 100 % of control; under setting [23], 100 % of control.

Regarding `CC1CN=C(c2ccc(NC(=O)Nc3ccc(C(=O)Nc4ccc(C5=NCC(C)N5)cc4)cc3)cc2)N1` (configuration not stated), the T/C is, setting by setting: (dose: 66.0 mg/kg/injection, schedule: Q04DX003 (ip), vehicle: saline with Tween-80) 168 % of control and 209 % of control; under setting [5], 90 % of control and 222 % of control; (dose: 150.0 mg/kg/injection, schedule: Q04DX003 (ip), vehicle: saline with Tween-80) 100 % of control.

Take `COc1cc2c(cc1OC)-c1ccc3cc4c(cc3c1N(C)C2)OCO4`: the T/C is, setting by setting: (dose: 10.0 mg/kg/injection, schedule: Q01DX009 (ip), vehicle: other) 123 % of control; (dose: 40.0 mg/kg/injection, schedule: Q01DX009 (ip), vehicle: other) 155 % of control.

On to `CCCCCCCCCCCC(=O)Nc1ccc(C(=O)OCC)cc1`, for which the T/C by setting is: (dose: 100.0 mg/kg/injection, schedule: Q01DX001 (ip), vehicle: saline with Tween-80) 91 % of control; (dose: 200.0 mg/kg/injection, schedule: Q01DX001 (ip), vehicle: saline with Tween-80) 87 % of control; (dose: 400.0 mg/kg/injection, schedule: Q01DX001 (ip), vehicle: saline with Tween-80) 91 % of control.

In the case of `Nc1ccccc1-c1ccccc1N`, the T/C under setting [13] is 100 % of control and the T/C under setting [15] was 90 % of control.
